“Also recorded” adds a separate entry of the source. Square brackets hold non-standard residues; d marks the D form. Sar = CNCC(=O)O

The test system of data set [1] is NCI-H460 cells. The experiment in a line: viability assay of CLIP cyclised peptides on NCI-H460 cells (Example 3, Table 2). Type of data set: cell-based, human. The conditions noted are these: for % inhibition at 300 μM / IC50: 96 h; for IC50: values in brackets approximate; for cytotoxic activity against NCIH460 cells (in words): with and without Nanocin-PRO. As to the method: The following protocol was used: • 1) NCI-H460 cells were grown in Ham's F12 media supplemented with 10% FBS. • 2) Cells were harvested and seeded into 96-well plates at 500 cells per well. • 3) Peptides were diluted 1:2 from DMSO stock solutions to generate a 9-point dose range from a top concentration of 300 μM. Final DMSO concentration was constant at 1% (v/v). • 4) In line with the supplied Nanocin-PRO protocol, diluted peptides were incubated with Nanocin-PRO in media for 20 minutes prior to addition to cells. Nanocin-PRO was used at a final assay concentration of 0.2 μl per well. • 5) Cells were grown in the presence of peptide for 96 hours at 37° C., 5% CO2 in a humidified atmosphere. • 6) After 96 h, Alamar blue 10% (v/v) was added, incubated for a further 4 h and fluorescent product detected using a BMG FLUOstar plate reader. • 7) Media only background readings were subtracted before data was analysed using a 4-parameter logistic equation in GraphPad Prism.
Viability assays of the CLIP cyclised peptides were performed to examine the effect of four HILRa clipped peptides on the viability of NCIH460 cells (up to three isomers for each of the peptides). […] Results for HILRa 16A, 16B, 16C and HILRa 17A, 17B and 17C are depicted in FIG. 2.
Assays were performed in the presence and absence of the peptide transfection reagent Nanocin-PRO.

For data set [2], the system named is human non-small cell lung cancer cells (NCIH-460). Description: killing of NCIH-460 cells by CLIPS-cyclised peptides of different warhead length (Table 1). It is filed as cell-based. As to the method:
The inventor undertook testing of the effect of various peptides which were cyclised using CLIPS technology on the killing of human non-small cell lung cancer cells (NCIH-460) in vitro. For each of the peptides, between two and four isomer fractions were received, giving a total of 12 peptide entities tested.
The following warhead lengths, obtained by adding flanking sarcosine residues, were tested: […]

As usually defined, the % inhibition is the change of the read-out against control, counted positive when it falls. A high value points to strong suppression. As to `COc1ccc2c(C[C@@H]3NC(=O)[C@@H](NC(C)=O)CSCc4cccc(c4)CSC[C@@H](C(N)=O)NC(=O)CC(c4ccc5ccccc5c4)NC(=O)[C@H](CCCNC(=N)N)NC(=O)C4N(CCC4(C)C)C(=O)CN(C)C(=O)[C@H](CCCNC(=N)N)NC3=O)cc(=O)oc2c1` (single isomer, unassigned) [HILRa CL-15-A, Ac-C[Dac]R[Sar][dmPro]R[Nap]C-NH2], the entries for the “% inhibition at 300 μM” value in data set [1] (0.2 μl Nanocin-PRO per well) and in data set [1] (No Nanocin-PRO) were 84.5% and 22.7%, respectively.

As for `COc1ccc2c(C[C@@H]3NC(=O)[C@@H](NC(C)=O)CSCc4cccc(c4)CSC[C@@H](C(N)=O)NC(=O)CC(c4ccc5ccccc5c4)NC(=O)[C@H](CCCNC(=N)N)NC(=O)C4N(CCC4(C)C)C(=O)CN(C)C(=O)[C@H](CCCNC(=N)N)NC3=O)cc(=O)oc2c1` (single isomer, unassigned) [HILRa CL-15-B, Ac-C[Dac]R[Sar][dmPro]R[Nap]C-NH2], the “% inhibition at 300 μM” value in data set [1] (0.2 μl Nanocin-PRO per well) was determined as 87.5%; in data set [1] (No Nanocin-PRO) it was 20.2%.

Regarding `COc1ccc2c(C[C@@H]3NC(=O)[C@@H](NC(C)=O)CSCc4cccc(c4)CSC[C@@H](C(N)=O)NC(=O)CC(c4ccc5ccccc5c4)NC(=O)[C@H](CCCNC(=N)N)NC(=O)C4N(CCC4(C)C)C(=O)CN(C)C(=O)[C@H](CCCNC(=N)N)NC3=O)cc(=O)oc2c1` (single isomer, unassigned) [HILRa CL-15-C, Ac-C[Dac]R[Sar][dmPro]R[Nap]C-NH2], the “% inhibition at 300 μM” value in data set [1] (0.2 μl Nanocin-PRO per well) was found to be 88.5%; in data set [1] (No Nanocin-PRO) it was 23.8%.

On to `COc1ccc2c(C[C@@H]3NC(=O)[C@@H](NC(C)=O)CSCc4cccc(c4)CSC[C@@H](C(N)=O)NC(=O)CC(c4ccc5ccccc5c4)NC(=O)[C@H](CCCNC(=N)N)NC(=O)C4N(CCC4(C)C)C(=O)CN(C)C(=O)[C@H](CCCNC(=N)N)NC3=O)cc(=O)oc2c1` (single isomer, unassigned) [HILRa CL-15-D, Ac-C[Dac]R[Sar][dmPro]R[Nap]C-NH2], for which the “% inhibition at 300 μM” value in data set [1] (0.2 μl Nanocin-PRO per well) is reported as 89.1%; in data set [1] (No Nanocin-PRO) it was 25.2%.

Regarding `COc1ccc2c(C[C@@H]3NC(=O)[C@@H](NC(C)=O)CSCc4cccc(c4)CSC[C@@H](C(N)=O)NC(=O)CC(c4ccc5ccccc5c4)NC(=O)[C@H](CCCNC(=N)N)NC(=O)CC(c4ccc5ccccc5c4)NC(=O)CN(C)C(=O)[C@H](CCCNC(=N)N)NC3=O)cc(=O)oc2c1` (single isomer, unassigned) [HILRa CL-17-A, Ac-C[Dac]R[Sar][Nap]R[Nap]C-NH2], the “% inhibition at 300 μM” value came to 98.7% in data set [1] (0.2 μl Nanocin-PRO per well) and 90.3% in data set [1] (No Nanocin-PRO).

By IC50 is commonly meant the concentration that gives 50% inhibition. On to `COc1ccc2c(C[C@@H]3NC(=O)[C@@H](NC(C)=O)CSCc4cccc(c4)CSC[C@@H](C(N)=O)NC(=O)CC(c4ccc5ccccc5c4)NC(=O)[C@H](CCCNC(=N)N)NC(=O)CC(c4ccc5ccccc5c4)NC(=O)CN(C)C(=O)[C@H](CCCNC(=N)N)NC3=O)cc(=O)oc2c1` (single isomer, unassigned) [HILRa CL-17-B, Ac-C[Dac]R[Sar][Nap]R[Nap]C-NH2], for which the entries for the “% inhibition at 300 μM” value in data set [1] (0.2 μl Nanocin-PRO per well) and in data set [1] (No Nanocin-PRO) were 99.3% and 99.2%, respectively. This compound also gave an IC50 in data set [1] (0.2 μl Nanocin-PRO per well) of around 2100 nM.

On to `COc1ccc2c(C[C@@H]3NC(=O)[C@@H](NC(C)=O)CSCc4cccc(c4)CSC[C@@H](C(N)=O)NC(=O)CC(c4ccc5ccccc5c4)NC(=O)[C@H](CCCNC(=N)N)NC(=O)CC(c4ccc5ccccc5c4)NC(=O)CN(C)C(=O)[C@H](CCCNC(=N)N)NC3=O)cc(=O)oc2c1` (single isomer, unassigned) [HILRa CL-17-C, Ac-C[Dac]R[Sar][Nap]R[Nap]C-NH2], for which the “% inhibition at 300 μM” value in data set [1] (0.2 μl Nanocin-PRO per well) came to 99.4%; in data set [1] (No Nanocin-PRO), 99.6%. For the same compound, the concentration for half-maximal inhibition (IC50) in data set [1] (0.2 μl Nanocin-PRO per well) was around 880 nM.

In the case of “Ac-CDacHcaSarNapHcaNapC-NH2 [HILRa CL-16-A]”, the results for the “% inhibition at 300 μM” value in data set [1] (0.2 μl Nanocin-PRO per well) and in data set [1] (No Nanocin-PRO) were 0.0% and 9.9%, respectively. In addition, the “cytotoxic activity against NCIH460 cells (in words)” value (“cytotoxic activity” below) in data set [1] is reported as “completely removed the cell killing effect; also recorded: low detectable cancer cell-necrotic activity”.

For “Ac-CDacHcaSarNapHcaNapC-NH2 [HILRa CL-16-B]”, the “% inhibition at 300 μM” value turned out to be 0.0% in data set [1] (0.2 μl Nanocin-PRO per well) and 14.1% in data set [1] (No Nanocin-PRO). Also, the “cytotoxic activity” value in data set [1] is recorded as “completely removed the cell killing effect; also recorded: low detectable cancer cell-necrotic activity”.

“Ac-CDacHcaSarNapHcaNapC-NH2 [HILRa CL-16-C]”: the figures for the “% inhibition at 300 μM” value in data set [1] (0.2 μl Nanocin-PRO per well) and in data set [1] (No Nanocin-PRO) were 0.5% and 26.9%, respectively. Moreover, the “cytotoxic activity” value in data set [1] is listed as “completely removed the cell killing effect; also recorded: low detectable cancer cell-necrotic activity”.

Regarding “Ac-CDacHcaSarNapHcaNapC-NH2 [HILRa-CL-16]”, in data set [1], the “cytotoxic activity” value is “negligible activity”.

On to “Ac-CDacHcaSarProHcaNapC-NH2 [HILRa CL-14-A]”, for which the “% inhibition at 300 μM” value in data set [1] (0.2 μl Nanocin-PRO per well) came to 9.9%; in data set [1] (No Nanocin-PRO), 10.5%. Further, the “cytotoxic activity” value in data set [1] is reported as “low detectable cancer cell-necrotic activity”.

For “Ac-CDacHcaSarProHcaNapC-NH2 [HILRa CL-14-B]”, the “% inhibition at 300 μM” value in data set [1] (0.2 μl Nanocin-PRO per well) stood at 6.8%; in data set [1] (No Nanocin-PRO), 5.8%. For the same compound, in data set [1], the “cytotoxic activity” value is recorded as “low detectable cancer cell-necrotic activity”.

“Ac-CDacHcaSarProHcaNapC-NH2 [HILRa-CL-14]”: the “cytotoxic activity” value in data set [1] is reported as “negligible activity”.

Turning to Ac-CPKGPKPC-NH2 [HILRa-CL-10], the “% inhibition at 1 mM” value stood at 0.8% in data set [2] (0.2 μl Nanocin-PRO per well) and 2.2% in data set [2] (No Nanocin-PRO).

Ac-CPKGPRPC-NH2 [HILRa-CL-04]: the “% inhibition at 1 mM” value in data set [2] (0.2 μl Nanocin-PRO per well) came to 8.5%; in data set [2] (No Nanocin-PRO), 0.0%.

In the case of Ac-CPRGPKPC-NH2 [HILRa-CL-07], the “% inhibition at 1 mM” value was found to be 1.5% in data set [2] (0.2 μl Nanocin-PRO per well) and 0.0% in data set [2] (No Nanocin-PRO).

Take “Ac-CPRGPRPC-NH2 [HILRa-CL-01, CLIPS-cyclised peptide]”: the “% inhibition at 1 mM” value in data set [2] (0.2 μl Nanocin-PRO per well) was 12.9%; in data set [2] (0.2 μl Nanocin-PRO per well, listed as ‘clipped’ Pro-Arg-Gly-Pro-Arg-Pro warhead), “over 10%”; in data set [2] (No Nanocin-PRO), 0.0%.

On to “Ac-C[Sar]PKGPKP[Sar]C-NH2 (CXPKGPKPXC; N-acetyl; C-amide; sarcosines; HILRa-CL-11 Synthesized; Sar (2)..(2) X = Sarcosine; Sar (9)..(9) X = Sarcosine)”, for which the figures for the “% inhibition at 1 mM” value in data set [2] (0.2 μl Nanocin-PRO per well) and in data set [2] (No Nanocin-PRO) were 1.2% and 0.0%, respectively.

As for “Ac-C[Sar]PKGPRP[Sar]C-NH2 (CXPKGPRPXC; N-acetyl; C-amide; sarcosines; HILRa-CL-05 Synthesized; Sar (2)..(2) X = Sarcosine; Sar (9)..(9) X = Sarcosine)”, the “% inhibition at 1 mM” value in data set [2] (0.2 μl Nanocin-PRO per well) was 1.1%; in data set [2] (No Nanocin-PRO) it was 0.0%.

On to “Ac-C[Sar]PRGPKP[Sar]C-NH2 (CXPRGPKPXC; N-acetyl; C-amide; sarcosines; HILRa-CL-08 Synthesized; Sar (2)..(2) X = Sarcosine; Sar (9)..(9) X = Sarcosine)”, for which the “% inhibition at 1 mM” value amounted to 3.2% in data set [2] (0.2 μl Nanocin-PRO per well) and 0.0% in data set [2] (No Nanocin-PRO).

For the compound “Ac-C[Sar]PRGPRP[Sar]C-NH2 (CXPRGPRPXC; N-acetyl; C-amide; sarcosines; HILRa-CL-02 Synthesized; Sar (2)..(2) X = Sarcosine; Sar (9)..(9) X = Sarcosine)”, the “% inhibition at 1 mM” value stood at 2.0% in data set [2] (0.2 μl Nanocin-PRO per well) and 0.0% in data set [2] (No Nanocin-PRO).

As for “Ac-C[Sar][Sar]PKGPKP[Sar][Sar]C-NH2 (CXXPKGPKPXXC; N-acetyl; C-amide; sarcosines; HILRa-CL-12 Synthesized; Sar (2)..(2) X = Sarcosine; Sar (3)..(3) X = Sarcosine; Sar (10)..(10) X = Sarcosine; Sar (11)..(11) X = Sarcosine)”, the “% inhibition at 1 mM” value is on record as 0.8% in data set [2] (0.2 μl Nanocin-PRO per well) and 0.0% in data set [2] (No Nanocin-PRO).

With “Ac-C[Sar][Sar]PKGPRP[Sar][Sar]C-NH2 (CXXPKGPRPXXC; N-acetyl; C-amide; sarcosines; HILRa-CL-06 Synthesized; Sar (2)..(2) X = Sarcosine; Sar (3)..(3) X = Sarcosine; Sar (10)..(10) X = Sarcosine; Sar (11)..(11) X = Sarcosine)”, the figures for the “% inhibition at 1 mM” value in data set [2] (0.2 μl Nanocin-PRO per well) and in data set [2] (No Nanocin-PRO) were 6.1% and 0.0%, respectively.

“Ac-C[Sar][Sar]PRGPKP[Sar][Sar]C-NH2 (cysteine pairing not given here) [HILRa-CL-09]”: the “% inhibition at 1 mM” value in data set [2] (0.2 μl Nanocin-PRO per well) is 3.0%; in data set [2] (No Nanocin-PRO), 1.1%.

Take “Ac-C[Sar][Sar]PRGPRP[Sar][Sar]C-NH2 (CXXPRGPRPXXC; N-acetyl; C-amide; sarcosines; HILRa-CL-03 Synthesized; Sar (2)..(2) X = Sarcosine; Sar (3)..(3) X = Sarcosine; Sar (10)..(10) X = Sarcosine; Sar (11)..(11) X = Sarcosine)”: the “% inhibition at 1 mM” value in data set [2] (0.2 μl Nanocin-PRO per well) is 9.5%; in data set [2] (No Nanocin-PRO), 0.0%.
